{"source": "patent US20250325511A1", "about": "“DIETARY BUTYRATE” (SOCIETE DES PRODUITS NESTLE S.A., priority 2019, published 2025)", "key": {"[1]": {"system": "rabbit gastric lipase followed by porcine pancreatic lipase", "experiment": "Sequential in vitro digestion SGF (RGL) followed by SIF (PPL), pH-stat", "text": "No measurements were taken in the gastric compartment due to limited ionisation of the target fatty acids."}, "[2]": {"target": "T1, porcine pancreatic lipase (from pancreatin) (Sus scrofa, UniProt P00591)", "T1 sequence (P00591 1-450)": "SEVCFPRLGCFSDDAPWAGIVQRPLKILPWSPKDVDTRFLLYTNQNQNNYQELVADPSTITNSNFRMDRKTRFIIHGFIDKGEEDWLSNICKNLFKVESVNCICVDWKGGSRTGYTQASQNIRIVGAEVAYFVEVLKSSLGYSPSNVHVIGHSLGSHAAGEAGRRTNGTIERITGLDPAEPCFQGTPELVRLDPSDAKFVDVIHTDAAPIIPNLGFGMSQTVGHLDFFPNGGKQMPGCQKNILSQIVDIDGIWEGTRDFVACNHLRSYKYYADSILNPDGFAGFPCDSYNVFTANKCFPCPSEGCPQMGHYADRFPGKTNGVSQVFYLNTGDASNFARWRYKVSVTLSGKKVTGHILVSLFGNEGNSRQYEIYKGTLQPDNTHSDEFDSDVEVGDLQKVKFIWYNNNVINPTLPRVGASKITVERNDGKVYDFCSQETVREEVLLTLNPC", "T1 sequence (P02703 23-112 partner)": "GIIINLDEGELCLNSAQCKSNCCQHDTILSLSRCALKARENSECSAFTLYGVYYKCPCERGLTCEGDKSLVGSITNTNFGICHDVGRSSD"}}, "note": "Entries after “also recorded” stand apart in the source; their conditions may differ."}
{"compound": "CCCC(=O)OCC(COC(=O)CCC)OC(=O)CCC", "note": "[tributyrin]", "values": [{"measurement": "Initial lipolysis rate in SIF during SGF-SIF digestion", "setting": "[1]; after 90 min SGF with rabbit gastric lipase, emulsion with 200 mg fat", "result": "44.1 ± 8.8", "unit": "µmol/min"}, {"measurement": "Hydrolysis in the stomach (gastric compartment of the model)", "setting": "[1]; in words", "result": "considerable digestion; also recorded: extensive hydrolysis"}, {"measurement": "Lipolysis by gastric lipase", "setting": "[1]; indicated by decreased total fatty acid release in SIF after RGL pre-exposure", "result": "~60", "unit": "%"}, {"measurement": "Initial rate of lipolysis", "setting": "[2]; SIF alone, emulsion with 200 mg fat, pH 6.8, 37° C.", "result": "223 ± 59", "unit": "µmol/min"}, {"measurement": "Overall extent of lipid digestion", "setting": "[2]; back titration to pH 11.5, after SIF and SGF-SIF (FIG. 2)", "result": "101.5±0.9", "unit": "%"}]}
